According to patent EP2468303A1, “Functionalized nucleic acids and particles comprising them for the treatment of HIV infections” (priority 2010, dated 2012):

Test system: pNL4.3 virus
Assay: Time-of-addition experiment in single-round infection assay
Format: cell-based, HIV-1
Settings: Hela P4 cells, 100 nM, whatever the time of addition post-infection
Text: Antiviral activity was quantified using the above-described CPRG assay.

`Cc1nnc(C(=O)NC(C)(C)c2nc(C(=O)NCc3ccc(F)cc3)c(O)c(=O)n2C)o1` [raltegravir] was tested, and the viral replication blocked was under 100%.
